Literature values in article PMC3689924 (Pharmacology, 2012).

Conditions: cited from earlier work

Row | Compound | increase in AUC with increasing dose
1 | COC(=O)c1cnc2n1CCc1ccccc1C2=C1CCN(CCc2ccc(OCc3ccc4ccccc4n3)cc2)CC1 [laniquidar] | greater than proportional increases in AUC
2 | O[C@@H](COc1cccc2ncccc12)CN1CCN([C@@H]2c3ccccc3[C@@H]3[C@H](c4ccccc42)C3(F)F)CC1 [zosuquidar] | greater than proportional increases in AUC
